Usually melting point stands for the temperature of the solid-liquid transition. `Cn1cc(C2(c3c[nH]c4ncccc34)CSC=N2)c2cccnc21` (stereo not shown) [Compound 1j, 1-Methyl-3-[4-(1H-pyrrolo[2,3-b]pyridin-3-yl)-1,3-thiazol-4-yl]-1H-pyrrolo[2,3-b]pyridine] showed a melting point of 303 to 304 °C.
Under `CC(C)(C)OC(=O)n1cc(-c2nc(-c3c[nH]c4c(Cl)nccc34)cs2)c2ccccc21` [Compound 3a, Tert-Butyl 3-[4-(7-Chloro-1H-pyrrolo[2,3-c]pyridin-3-yl)-1,3-thiazol-2-yl]-1H-indole-1-carboxylate] stands 225 to 226 °C; under `COc1ccc2c(c1)c(-c1nc(-c3c[nH]c4c(Cl)nccc34)cs1)cn2C` [Compound 2b, 7-Chloro-3-[2-(5-methoxy-1-methyl-1H-indol-3-yl)-1,3-thiazol-4-yl]-1H-pyrrolo[2,3-c]pyridine], 216 to 217 °C; under `Cn1cc(-c2csc(-c3c[nH]c4ccc(F)cc34)n2)c2ccnc(Cl)c21` [Compound 2i, 7-Chloro-3-[2-(5-fluoro-1H-indol-3-yl)-1,3-thiazol-4-yl]-1-methyl-1H-pyrrolo[2,3-c]pyridine], 284 to 285 °C.
The value for `COc1ccc2c(c1)c(-c1nc(-c3cn(C)c4c(Cl)nccc34)cs1)cn2C` [Compound 2f, 7-Chloro-3-[2-(5-methoxy-1-methyl-1H-indol-3-yl)-1,3-thiazol-4-yl]-1-methyl-1H-pyrrolo[2,3-c]pyridine] was 231 to 232 °C; that for `COc1ccc2[nH]cc(-c3nc(-c4c[nH]c5c(Cl)nccc45)cs3)c2c1` [Compound 4b, 7-Chloro-3-[2-(5-methoxy-1H-indol-3-yl)-1,3-thiazol-4-yl]-1H-pyrrolo[2,3-c]pyridine] was 223 to 224 °C; that for `Cn1cc(-c2csc(-c3cn(C)c4ncccc34)n2)c2cccnc21` [Compound 1g, 3,3′-(1,3-Thiazole-2,4-diyl)bis(1-methyl-1H-pyrrolo[2,3-b]pyridine)] was 310 to 311 °C.
Under `Clc1nccc2c(-c3csc(-c4c[nH]c5ccccc45)n3)c[nH]c12` [Compound 4a, 7-Chloro-3-[2-(1H-indol-3-yl)-1,3-thiazol-4-yl]-1H-pyrrolo[2,3-c]pyridine] stands 271 to 272 °C.
`Cn1cc(-c2nc(-c3cn(C)c4c(Cl)nccc34)cs2)c2ccccc21` [Compound 2e, 7-Chloro-1-methyl-3-[2-(1-methyl-1H-indol-3-yl)-1,3-thiazol-4-yl]-1H-pyrrolo[2,3-c]pyridine] gave a melting point of 265 to 266 °C.
Under `Cn1cc(-c2nc(-c3c[nH]c4c(Cl)nccc34)cs2)c2cc(Br)ccc21` [Compound 2c, 3-[2-(5-Bromo-1-methyl-1H-indol-3-yl)-1,3-thiazol-4-yl]-7-chloro-1H-pyrrolo[2,3-c]pyridine] stands 374 to 375 °C.
Under `Cn1cc(-c2csc(-c3c[nH]c4ncccc34)n2)c2cc(F)cnc21` [Compound 1l, 5-Fluoro-1-methyl-3-[2-(1H-pyrrolo[2,3-b]pyridin-3-yl)-1,3-thiazol-4-yl]-1H-pyrrolo[2,3-b]pyridine] stands 295 to 296 °C.
For the compound `Cn1cc(-c2nc(-c3c[nH]c4ncccc34)cs2)c2cccnc21` [Compound 1d, 1-Methyl-3-[4-(1H-pyrrolo[2,3-b]pyridin-3-yl)-1,3-thiazol-2-yl]-1H-pyrrolo[2,3-b]pyridine], the melting point lay within 278 to 279 °C.
The compound `Cn1cc(-c2csc(-c3cn(C)c4ncccc34)n2)c2cc(F)cnc21` [Compound 1i, 5-Fluoro-1-methyl-3-[2-(1-methyl-1H-pyrrolo[2,3-b]pyridin-3-yl)-1,3-thiazol-4-yl]-1H-pyrrolo[2,3-b]pyridine] gave a melting point of 301 to 302 °C.
As for `Fc1ccc2[nH]cc(-c3nc(-c4c[nH]c5c(Cl)nccc45)cs3)c2c1` [Compound 2j, 7-Chloro-3-[2-(5-fluoro-1H-indol-3-yl)-1,3-thiazol-4-yl]-1H-pyrrolo[2,3-c]pyridine], the melting point was in the range of 281 to 282 °C.
Turning to `Cn1cc(-c2csc(-c3cn(C)c4ncccc34)n2)c2cc(Br)cnc21` [Compound 1h, 5-Bromo-1-methyl-3-[2-(1-methyl-1H-pyrrolo[2,3-b]pyridin-3-yl)-1,3-thiazol-4-yl]-1H pyrrolo[2,3-b]pyridine], the melting point worked out at 308 °C.
`Cn1cc(-c2nc(-c3c[nH]c4ncc(Br)cc34)cs2)c2cccnc21` [Compound 1e, 3-[4-(5-Bromo-1H-pyrrolo[2,3-b]pyridin-3-yl)-1,3-thiazol-2-yl]-1-methyl-1H-pyrrolo[2,3-b]pyridine] had a melting point of 311 °C.
The value for `c1cnc2[nH]cc(-c3csc(-c4c[nH]c5ncccc45)n3)c2c1` [Compound 1a, 3,3′-(1,3-Thiazole-2,4-diyl)bis(1H-pyrrolo[2,3-b]pyridine)] was 346 to 347 °C; that for `Cn1cc(-c2nc(-c3c[nH]c4ncc(F)cc34)cs2)c2cccnc21` [Compound 1f, 3-[4-(5-Fluoro-1H-pyrrolo[2,3-b]pyridin-3-yl)-1,3-thiazol-2-yl]-1-methyl-1H-pyrrolo[2,3-b]pyridine] was 316 °C.
Under `COc1ccc2c(c1)c(-c1nc(-c3c[nH]c4c(Cl)nccc34)cs1)cn2C(=O)OC(C)(C)C` [Compound 3b, Tert-Butyl 3-[4-(7-chloro-1H-pyrrolo[2,3-c]pyridin-3-yl)-1,3-thiazol-2-yl]-5-methoxy-1H-indole-1-carboxylate] stands 312 to 313 °C; under `CC(C)(C)OC(=O)n1cc(-c2nc(-c3c[nH]c4c(Cl)nccc34)cs2)c2cc(Br)ccc21` [Compound 3c, Tert-Butyl 5-bromo-3-[4-(7-chloro-1H-pyrrolo[2,3-c]pyridin-3-yl)-1,3-thiazol-2-yl]-1H-indole-1-carboxylate], 241 to 242 °C; under `Brc1cnc2[nH]cc(-c3csc(-c4c[nH]c5ncccc45)n3)c2c1` [Compound 1b, 5-Bromo-3-[2-(1H-pyrrolo[2,3-b]pyridin-3-yl)-1,3-thiazol-4-yl)-1H-pyrrolo[2,3-b]pyridine], 390 to 391 °C.
The value for `Fc1cnc2[nH]cc(-c3csc(-c4c[nH]c5ncccc45)n3)c2c1` [Compound 1c, 5-Fluoro-3-[2-(1H-pyrrolo[2,3-b]pyridin-3-yl)-1,3-thiazol-4-yl]-1H-pyrrolo[2,3-b]pyridine] was 373 to 374 °C.
The compound `Cn1cc(-c2nc(-c3cn(C)c4c(Cl)nccc34)cs2)c2cc(F)ccc21` [Compound 2h, 7-Chloro-3-[2-(5-fluoro-1-methyl-1H-indol-3-yl)-1,3-thiazol-4-yl]-1-methyl-1H-pyrrolo[2,3-c]pyridine] displayed a melting point of 284 to 285 °C.
Consider `Cn1cc(-c2nc(-c3cn(C)c4c(Cl)nccc34)cs2)c2cc(Br)ccc21` [Compound 2g, 3-[2-(5-Bromo-1-methyl-1H-indol-3-yl)-1,3-thiazol-4-yl]-7-chloro-1-methyl-1H-pyrrolo[2,3-c]pyridine], for which the melting point fell in the range of 249 to 250 °C.
The value for `COc1ccc2[nH]cc(-c3nc(-c4cn(C)c5c(Cl)nccc45)cs3)c2c1` [Compound 4e, 7-Chloro-3-[2-(5-methoxy-1H-indol-3-yl)-1,3-thiazol-4-yl]-1-methyl-1H-pyrrolo[2,3-c]pyridine] was 184 to 185 °C.
Under `Cn1cc(-c2csc(-c3c[nH]c4ccccc34)n2)c2ccnc(Cl)c21` [Compound 4d, 7-Chloro-3-[2-(1H-indol-3-yl)-1,3-thiazol-4-yl]-1-methyl-1H-pyrrolo[2,3-c]pyridine] stands 210 to 211 °C; under `Cn1cc(-c2nc(-c3c[nH]c4c(Cl)nccc34)cs2)c2ccccc21` [Compound 2a, 7-Chloro-3-[2-(1-methyl-1H-indol-3-yl)-1,3-thiazol-4-yl]-1H-pyrrolo[2,3-c]pyridine], 326 to 327 °C; under `Cn1cc(-c2csc(-c3cn(C(=O)OC(C)(C)C)c4ccccc34)n2)c2ccnc(Cl)c21` [Compound 3d, Tert-Butyl 3-[4-(7-chloro-1-methyl-1H-pyrrolo[2,3-c]pyridin-3-yl)-1,3-thiazol-2-yl]-1H-indole-1-carboxylate], 279 to 280 °C.
The value for `Cn1cc(-c2csc(-c3cn(C(=O)OC(C)(C)C)c4ccc(Br)cc34)n2)c2ccnc(Cl)c21` [Compound 3f, Tert-Butyl 5-bromo-3-[4-(7-chloro-1-methyl-1H-pyrrolo[2,3-c]pyridin-3-yl)-1,3-thiazol-2-yl]-1H-indole-1-carboxylate] was 257 °C.
Take `Cn1cc(-c2nc(-c3c[nH]c4c(Cl)nccc34)cs2)c2cc(F)ccc21` [Compound 2d, 7-Chloro-3-[2-(5-fluoro-1-methyl-1H-indol-3-yl)-1,3-thiazol-4-yl]-1H-pyrrolo[2,3-c]pyridine]: the melting point lay in the range of 337 to 338 °C.
The value for `Cn1cc(-c2csc(-c3c[nH]c4ccc(Br)cc34)n2)c2ccnc(Cl)c21` [Compound 4f, 3-[2-(5-Bromo-1H-indol-3-yl)-1,3-thiazol-4-yl]-7-chloro-1-methyl-1H-pyrrolo[2,3-c]pyridine] was 273 to 274 °C.

(Values after PMC4306947, “Synthesis and Antiproliferative Activity of Thiazolyl-bis-pyrrolo[2,3-b]pyridines and Indolyl-thiazolyl-pyrrolo[2,3-c]pyridines, Nortopsentin Analogues” (Marine Drugs, 2015).)
